Here are results for 19 molecules from patent US20230212121A1 (DAEGU-GYEONGBUK MEDICAL INNOVATION FOUNDATION, priority 2020, published 2023).

Common to all, as to assay type: cell-based
Experiment [1] concerns the target T1, serotonin transporter (SERT) (Homo sapiens, UniProt P31645).
T1 construct: expressed in transfected cells; host or cells: HEK-293
In words: Serotonin reuptake inhibition, [3H]-5-HT, HEK-293 cells transfected with 5-HT transporter cDNA. Conditions: for IC50: concentration at which Ratio % is 50%, 6 concentrations 1 nM to 1 μM, read-out: Triple reuptake inhibition (IC50, μM) SERT. The procedure: (§1) In order to evaluate the reuptake inhibitory effect of the compounds of the Examples according to the present invention on serotonin, norepinephrine and dopamine, the experiments below were performed, and the results are shown in Table 17.
(§2) To evaluate the reuptake inhibition effect on dopamine, the dopamine transporter cDNA was transfected using the HEK-293 cell line, and then sub-seeded in a 24 well plate the next day. After removing the medium, each compound of the Examples or Comparative Examples diluted to 1 μM in uptake buffer was added to a concentration of 200 μl/well and cultured at 37° C. for 15 minutes. 100 μl of uptake buffer containing 20-30 nM [3H]-DA was added and cultured at 37° C. for 5 minutes. The reaction solution was quickly removed and washed three times with 1 ml ice-cold uptake buffer. After dissolving the resultant in 1% SDS (0.5 ml), the degree of binding of radioisotope-labeled dopamine to the transporter was measured.
(§3) For norepinephrine (NE) and serotonin (5-HT), the degree of binding of radioisotope-labeled norepinephrine or serotonin to the transporter was measured in the same manner as above, except that cells transfected with NE or 5-HT transporter cDNA were used and [3H]—NE or [3H]-5-HT was used as a substrate.
(§4) In addition, when evaluating the reuptake inhibitory effect on dopamine, norepinephrine, and serotonin, the same method was performed without treating each compound of the Examples or Comparative Examples as a control, the degree of binding of radioisotope-labeled dopamine, norepinephrine, and serotonin to the transporter was measured, and by using this as a reference (100%), the triple reuptake inhibitory effect was evaluated as a relative ratio (Ratio %). That is, in the control group, the binding of dopamine, norepinephrine, and serotonin to transporters is not inhibited, but when each compound of the Examples is treated and thus the binding is inhibited, the Ratio % value decreases.
(§5) Meanwhile, the Ratio % values were compared, and in the case of the compounds of Examples 6, 10, 13, 14, 17, 20, 21, 22, 30, 31, 32, 34, 36, 38, 39, 40, 54, 55, 56, 57, 58 and 73 with excellent reuptake inhibitory effects on dopamine, norepinephrine and serotonin, the concentration at which the Ratio % is 50% was calculated using a total of 6 concentrations (1 nM, 5 nM, 10 nM, 50 nM, 100 nM, and 1 μM) and expressed as IC50.

Experiment [2] addresses T2, norepinephrine transporter (NET) (Homo sapiens, UniProt P23975).
T2 construct: expressed in transfected cells; host or cells: HEK-293
Briefly: Norepinephrine reuptake inhibition, [3H]-NE, HEK-293 cells transfected with NE transporter cDNA. Conditions: for Triple reuptake inhibition (Ratio %) NET: compound 1 μM, [3H]-NE, relative to control without compound = 100%, lower value = more inhibition; for IC50: concentration at which Ratio % is 50%, 6 concentrations 1 nM to 1 μM, read-out: Triple reuptake inhibition (IC50, μM) NET. Here is the method: as §1, §2, §3, §4, §5

Experiment [3] has as its target T3, dopamine transporter (DAT) (Homo sapiens, UniProt Q01959).
T3 construct: expressed in transfected cells; host or cells: HEK-293
Briefly: Dopamine reuptake inhibition, [3H]-DA, HEK-293 cells transfected with dopamine transporter cDNA. Conditions: for Triple reuptake inhibition (Ratio %) DAT: compound 1 μM, 20-30 nM [3H]-DA, relative to control without compound = 100%, lower value = more inhibition; for IC50: concentration at which Ratio % is 50%, 6 concentrations 1 nM to 1 μM, read-out: Triple reuptake inhibition (IC50, μM) DAT. Here is the method: as §1, §2, §4, §5

Where [4] appears, read: compound 1 μM, [3H]-5-HT, relative to control without compound = 100%, lower value = more inhibition.

Like-named read-outs stand apart in the source and are kept apart here.

T1 sequence (P31645 whole entry, species assumed): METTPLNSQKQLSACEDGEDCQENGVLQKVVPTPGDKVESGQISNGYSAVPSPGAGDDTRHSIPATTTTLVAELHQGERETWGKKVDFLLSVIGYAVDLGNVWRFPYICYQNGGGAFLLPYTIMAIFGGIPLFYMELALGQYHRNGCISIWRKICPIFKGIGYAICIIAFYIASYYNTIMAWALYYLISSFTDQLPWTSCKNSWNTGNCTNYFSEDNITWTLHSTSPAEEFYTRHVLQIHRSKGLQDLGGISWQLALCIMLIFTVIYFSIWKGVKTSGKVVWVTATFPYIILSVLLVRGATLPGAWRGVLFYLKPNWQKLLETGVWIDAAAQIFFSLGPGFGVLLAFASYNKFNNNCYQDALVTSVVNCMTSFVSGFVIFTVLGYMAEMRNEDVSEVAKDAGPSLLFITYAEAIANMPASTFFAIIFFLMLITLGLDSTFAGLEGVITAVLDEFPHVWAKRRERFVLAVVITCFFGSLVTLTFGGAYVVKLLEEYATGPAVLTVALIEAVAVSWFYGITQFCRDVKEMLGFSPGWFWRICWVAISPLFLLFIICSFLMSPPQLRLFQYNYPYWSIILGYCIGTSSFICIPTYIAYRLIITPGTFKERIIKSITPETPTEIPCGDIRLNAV
T2 sequence (P23975 whole entry, species assumed): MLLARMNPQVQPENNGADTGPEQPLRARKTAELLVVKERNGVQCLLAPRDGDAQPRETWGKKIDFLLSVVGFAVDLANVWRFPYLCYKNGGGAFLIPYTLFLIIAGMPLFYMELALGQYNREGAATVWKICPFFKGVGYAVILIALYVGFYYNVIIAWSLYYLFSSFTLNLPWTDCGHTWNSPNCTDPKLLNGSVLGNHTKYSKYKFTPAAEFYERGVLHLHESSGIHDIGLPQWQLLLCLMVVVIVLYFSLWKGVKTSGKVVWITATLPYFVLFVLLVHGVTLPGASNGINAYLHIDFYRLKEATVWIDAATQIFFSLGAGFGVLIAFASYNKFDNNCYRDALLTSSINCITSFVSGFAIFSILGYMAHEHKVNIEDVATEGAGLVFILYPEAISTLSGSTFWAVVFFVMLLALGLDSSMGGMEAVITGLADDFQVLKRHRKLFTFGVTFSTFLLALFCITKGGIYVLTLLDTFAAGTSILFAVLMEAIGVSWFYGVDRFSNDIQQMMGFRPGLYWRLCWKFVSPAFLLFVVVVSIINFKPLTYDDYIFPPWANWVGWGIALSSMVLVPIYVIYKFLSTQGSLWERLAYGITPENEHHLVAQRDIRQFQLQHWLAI
T3 sequence (Q01959 whole entry, species assumed): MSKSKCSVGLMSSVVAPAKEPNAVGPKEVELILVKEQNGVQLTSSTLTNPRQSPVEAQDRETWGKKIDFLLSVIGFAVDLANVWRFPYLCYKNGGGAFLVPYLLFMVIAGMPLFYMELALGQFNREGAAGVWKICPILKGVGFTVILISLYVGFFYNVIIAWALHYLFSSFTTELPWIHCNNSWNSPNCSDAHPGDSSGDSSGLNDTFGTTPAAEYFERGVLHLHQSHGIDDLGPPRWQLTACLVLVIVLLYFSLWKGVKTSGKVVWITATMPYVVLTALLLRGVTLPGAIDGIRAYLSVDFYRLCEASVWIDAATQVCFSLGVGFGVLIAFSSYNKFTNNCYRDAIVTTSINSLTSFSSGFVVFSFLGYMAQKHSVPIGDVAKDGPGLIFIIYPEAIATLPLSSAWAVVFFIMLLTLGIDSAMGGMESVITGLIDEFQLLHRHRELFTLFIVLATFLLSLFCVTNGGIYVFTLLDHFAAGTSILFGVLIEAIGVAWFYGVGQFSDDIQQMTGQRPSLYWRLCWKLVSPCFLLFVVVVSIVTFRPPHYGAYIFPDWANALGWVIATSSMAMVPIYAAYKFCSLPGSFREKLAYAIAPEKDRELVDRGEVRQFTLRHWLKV

On to `O=S(=O)(NCCN1CCC(Cc2ccccc2)CC1)c1ccc(O)cc1` [Example 1, N-(2-(4-benzylpiperidin-1-yl)ethyl)-4-hydroxybenzenesulfonamide], for which the “Triple reuptake inhibition (Ratio %) SERT” value in experiment [1] is recorded as 84.98%. Further, the “Triple reuptake inhibition (Ratio %) NET” value in experiment [2] came out at 77.88%. For the same molecule, the “Triple reuptake inhibition (Ratio %) DAT” value in experiment [3] was 65.88%.

With `O=S(=O)(NCCN1CCC(Cc2ccccc2)CC1)c1ccc(F)cc1` [Example 2, N-(2-(4-benzylpiperidin-1-yl)ethyl)-4-fluorobenzenesulfonamide], the “Triple reuptake inhibition (Ratio %) SERT” value in experiment [1] (setting [4]) is on record as 100.21%. Besides, the “Triple reuptake inhibition (Ratio %) NET” value in experiment [2] came to 61.32%. Moreover, the “Triple reuptake inhibition (Ratio %) DAT” value in experiment [3] turned out to be 73.55%.

Consider `O=S(=O)(NCCN1CCC(Cc2ccccc2)CC1)c1ccc(Oc2ccccc2)cc1` [Example 3, N-(2-(4-benzylpiperidin-1-yl)ethyl)-4-phenoxybenzenesulfonamide], for which, in experiment [1] (setting [4]), the “Triple reuptake inhibition (Ratio %) SERT” value came to 62.10%. For the same molecule, the “Triple reuptake inhibition (Ratio %) NET” value in experiment [2] is reported as 56.36%. Besides, the “Triple reuptake inhibition (Ratio %) DAT” value in experiment [3] is 50.09%.

Take `CCCCOc1ccc(S(=O)(=O)NCCN2CCC(Cc3ccc(Cl)c(Cl)c3)CC2)cc1` [Example 4, 4-butoxy-N-(2-(4-(3,4-dichlorobenzyl)piperidin-1-yl)ethyl)benzenesulfonamide]: the “Triple reuptake inhibition (Ratio %) SERT” value in experiment [1] (setting [4]) worked out at 76.57%. Also, in experiment [2], the “Triple reuptake inhibition (Ratio %) NET” value turned out to be 80.47%. In addition, the “Triple reuptake inhibition (Ratio %) DAT” value in experiment [3] stood at 88.71%.

With `CCCCOc1ccc(S(=O)(=O)N2CCC(c3c[nH]c4ccccc34)CC2)cc1` [Example 5, 3-(1-((4-butoxyphenyl)sulfonyl)piperidin-4-yl)-1H-indole], in experiment [1] (setting [4]), the “Triple reuptake inhibition (Ratio %) SERT” value worked out at 106.55%. Besides, the “Triple reuptake inhibition (Ratio %) NET” value in experiment [2] is reported as 94.03%. Also, in experiment [3], the “Triple reuptake inhibition (Ratio %) DAT” value worked out at 100.55%.

Consider `CCCCOc1ccc(S(=O)(=O)NCCN2CCC(c3c[nH]c4ccccc34)CC2)cc1` [Example 6], for which the “Triple reuptake inhibition (Ratio %) SERT” value in experiment [1] (setting [4]) came to 29.04%. Further, the IC50 in experiment [1] worked out at 0.457 µM. In addition, in experiment [2], the “Triple reuptake inhibition (Ratio %) NET” value came to 81.97%. In experiment [3], the “Triple reuptake inhibition (Ratio %) DAT” value was 54.56% and the IC50 was determined as 1.99 µM.

For `CCCCOc1ccc(S(=O)(=O)NCCN2CCC(c3c[nH]c4ccc(C)cc34)CC2)cc1` [Example 7, 4-butoxy-N-(2-(4-(5-methyl-1H-indol-3-yl)piperidin-1-yl)ethyl)benzenesulfonamide], in experiment [1] (setting [4]), the “Triple reuptake inhibition (Ratio %) SERT” value amounted to 93.29%. Moreover, the “Triple reuptake inhibition (Ratio %) NET” value in experiment [2] is given as 88.38%. Further, in experiment [3], the “Triple reuptake inhibition (Ratio %) DAT” value was found to be 99.63%.

For `CCCCOc1ccc(S(=O)(=O)NCCN2CCC(c3c[nH]c4ccc(OC)cc34)CC2)cc1` [Example 8, 4-butoxy-N-(2-(4-(5-methoxy-1H-indol-3-yl)piperidin-1-yl)ethyl)benzenesulfonamide], in experiment [1] (setting [4]), the “Triple reuptake inhibition (Ratio %) SERT” value came out at 98.57%. The “Triple reuptake inhibition (Ratio %) NET” value in experiment [2] stood at 79.30%. For the same molecule, the “Triple reuptake inhibition (Ratio %) DAT” value in experiment [3] came to 90.67%.

With `CCCCOc1ccc(S(=O)(=O)N2CCC(CCc3ccccc3)CC2)cc1` [Example 9, 1-((4-butoxyphenyl)sulfonyl)-4-phenethylpiperidin], the “Triple reuptake inhibition (Ratio %) SERT” value in experiment [1] (setting [4]) was found to be 101.11%. In experiment [2], the “Triple reuptake inhibition (Ratio %) NET” value is reported as 96.32%. Also, in experiment [3], the “Triple reuptake inhibition (Ratio %) DAT” value came out at 109.25%.

As to `CCCCOc1ccc(S(=O)(=O)NCCCN2CCC(Cc3ccccc3)CC2)cc1` [Example 10, N-(3-(4-benzylpiperidin-1-yl)propyl)-4-butoxybenzenesulfonamide], the “Triple reuptake inhibition (Ratio %) SERT” value in experiment [1] (setting [4]) was determined as 24.45%. The IC50 in experiment [1] was found to be 0.483 µM. Further, in experiment [2], the “Triple reuptake inhibition (Ratio %) NET” value amounted to 13.02% and the 50% inhibitory concentration (IC50) is 0.168 µM. In addition, in experiment [3], the “Triple reuptake inhibition (Ratio %) DAT” value turned out to be 41.80% and the IC50 was found to be 0.612 µM.

For `CCCCOc1ccc(S(=O)(=O)NCCCN2CCC(c3c[nH]c4ccccc34)CC2)cc1` [Example 11, N-(3-(4-(1H-indol-3-yl)piperidin-1-yl)propyl)-4-butoxybenzenesulfonamide], the “Triple reuptake inhibition (Ratio %) SERT” value in experiment [1] (setting [4]) turned out to be 18.04%. For the same molecule, the “Triple reuptake inhibition (Ratio %) NET” value in experiment [2] is 73.79%. Moreover, the “Triple reuptake inhibition (Ratio %) DAT” value in experiment [3] stood at 73.16%.

Turning to `O=S(=O)(NCCCN1CCC(Cc2ccccc2)CC1)c1ccc(Oc2ccccc2)cc1` [Example 13, N-(3-(4-benzylpiperidin-1-yl)propyl)-4-phenoxybenzenesulfonamide], the “Triple reuptake inhibition (Ratio %) SERT” value in experiment [1] (setting [4]) came to 41.46%. Moreover, the IC50 in experiment [1] stood at 1.08 µM. In addition, in experiment [2], the “Triple reuptake inhibition (Ratio %) NET” value is reported as 11.04% and the IC50 turned out to be 0.112 µM. Further, in experiment [3], the “Triple reuptake inhibition (Ratio %) DAT” value is 25.55% and the half-maximal inhibitory concentration (IC50) amounted to 0.872 µM.

`COc1ccc(S(=O)(=O)NCCCN2CCC(Cc3ccccc3)CC2)cc1` [Example 14, N-(3-(4-benzylpiperidin-1-yl)propyl)-4-methoxybenzenesulfonamide]: in experiment [1] (setting [4]), the “Triple reuptake inhibition (Ratio %) SERT” value was 55.67%. The concentration for half-maximal inhibition (IC50) was 1.75 µM in experiment [1], 0.173 µM in experiment [2] and 1.26 µM in experiment [3]. In experiment [2], the “Triple reuptake inhibition (Ratio %) NET” value was found to be 22.30%. Besides, the “Triple reuptake inhibition (Ratio %) DAT” value in experiment [3] was found to be 39.90%.

Turning to `CCCCNc1ccc(S(=O)(=O)NCCCN2CCC(Cc3ccccc3)CC2)cc1` [Example 16, N-(3-(4-benzylpiperidin-1-yl)propyl)-4-(butylamino)benzenesulfonamide], the “Triple reuptake inhibition (Ratio %) SERT” value in experiment [1] (setting [4]) is given as 74.25%. In experiment [2], the “Triple reuptake inhibition (Ratio %) NET” value was found to be 53.45%. Further, in experiment [3], the “Triple reuptake inhibition (Ratio %) DAT” value came to 93.59%.

With `O=C(CCN1CCCCC1)Nc1ccc(S(=O)(=O)NCCCN2CCC(Cc3ccccc3)CC2)cc1` [Example 17, N-(4-(N-(3-(4-benzylpiperidin-1-yl)propyl)sulfamoyl)phenyl)-3-(piperidin-1-yl)propaneamide], in experiment [1] (setting [4]), the “Triple reuptake inhibition (Ratio %) SERT” value amounted to 9.28%. In addition, in experiment [1], the concentration for half-maximal inhibition (IC50) was found to be 0.057 µM. Further, in experiment [2], the “Triple reuptake inhibition (Ratio %) NET” value was 58.66% and the 50% inhibitory concentration (IC50) was determined as 1.56 µM. Also, in experiment [3], the “Triple reuptake inhibition (Ratio %) DAT” value came out at 40.96% and the IC50 was 5.17 µM.

For the molecule `CN(C)CCC(=O)Nc1ccc(S(=O)(=O)NCCCN2CCC(Cc3ccccc3)CC2)cc1` [Example 18, N-(4-(N-(3-(4-benzylpiperidin-1-yl)propyl)sulfamoyl)phenyl)-3-(dimethylamino)propaneamide], the “Triple reuptake inhibition (Ratio %) NET” value in experiment [2] stood at 66.54%. For the same molecule, in experiment [3], the “Triple reuptake inhibition (Ratio %) DAT” value stood at 65.67%.

In the case of `CCCCOc1ccc(S(=O)(=O)NCCCN2CCC(Cc3ccc(Cl)c(Cl)c3)CC2)cc1` [Example 20, 4-butoxy-N-(3-(4-(3,4-dichlorobenzyl)piperidin-1-yl)propyl)benzenesulfonamide], in experiment [1] (setting [4]), the “Triple reuptake inhibition (Ratio %) SERT” value is on record as 40.46%. The IC50 stood at 0.504 µM in experiment [1], 0.221 µM in experiment [2] and 2.16 µM in experiment [3]. For the same molecule, the “Triple reuptake inhibition (Ratio %) NET” value in experiment [2] is on record as 30.29%. For the same molecule, the “Triple reuptake inhibition (Ratio %) DAT” value in experiment [3] came to 56.29%.

As to `CCCCOc1ccc(S(=O)(=O)NCCCN2CCC(Cc3ccc(F)c(F)c3)CC2)cc1` [Example 21, 4-butoxy-N-(3-(4-(3,4-difluorobenzyl)piperidinyl)propyl)benzenesulfonamide], the “Triple reuptake inhibition (Ratio %) SERT” value in experiment [1] (setting [4]) came out at 38.74%. Further, the half-maximal inhibitory concentration (IC50) was 0.455 µM in experiment [1], 0.946 µM in experiment [2] and 4.72 µM in experiment [3]. Besides, in experiment [2], the “Triple reuptake inhibition (Ratio %) NET” value amounted to 26.67%. The “Triple reuptake inhibition (Ratio %) DAT” value in experiment [3] is on record as 57.35%.

As to `CCCCOc1ccc(S(=O)(=O)NCCCN2CCC(c3ccc(Cl)c(Cl)c3)CC2)cc1` [Example 22, 4-butoxy-N-(3-(4-(3,4-dichlorophenyl)piperidinyl)propyl)benzenesulfonamide], the “Triple reuptake inhibition (Ratio %) SERT” value in experiment [1] (setting [4]) is on record as 38.07%. Besides, the IC50 in experiment [1] amounted to 0.609 µM. Further, in experiment [2], the “Triple reuptake inhibition (Ratio %) NET” value was found to be 36.85% and the IC50 was found to be 0.55 µM. In addition, in experiment [3], the “Triple reuptake inhibition (Ratio %) DAT” value was found to be 31.02% and the IC50 was 1.51 µM.
